Measurements as given in US20050288307A1, “Anti-viral compounds” (priority 2002, published 2005).
Like-named read-outs stand apart in the source and are kept apart here.

Assays:
CDK2/Cyclin E = target: T1, CDK2/Cyclin E (Homo sapiens, UniProt P24941); assay: CDK2/cyclin E kinase assay (GST-Rb phosphorylation); format: biochemical;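 further: enzyme source: His-tagged CDK2/cyclin E complex co-expressed recombinantly in Sf9 insect cells using baculovirus constructs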
T1 construct: His; made in house; host or cells: Sf9 insect cells (baculovirus)
Protocol: (§2) His-tagged CDK2/Cyclin E and CDK1/Cyclin B may be co-expressed and PKCα singularly expressed in Sf 9 insect cells infected with the appropriate baculovirus constructs. The cells are harvested two days after infection by low speed centrifugation and the proteins purified from the insect cell pellets by Metal-chelate chromatography. Briefly, the insect cell pellet is lysed in Buffer A (10 mM Tris-HCl, pH 8.0, 150 mM NaCl, 0.02% NP40 and 5 mM β-marcaptoethanol, 1 mM NaF. 1 mM Na3VO4 and Protease Inhibitors Coctail (Sigma) containing AEBSF, pepstatin A, E 64, bestatin, leupeptin) by sonication. The soluble fraction is cleared by centrifugation and loaded onto Ni-NTA-Agarose (Quiagen). Non bound proteins were washed off with 300 mM NaCl, 5-15 mM Imidazole in Buffer A and the bound proteins eluted with 250 mM Imidazole in Buffer A. The purified proteins are extensively dialyzed against Storage buffer (20 mM HEPES pH 7.4, 50 mM NaCl, 2 mM DTT, 1 mM EDTA, 1 mM EGTA, 0.02% NP40, 10% v/v Glycerol) aliquoted and stored at −70° C.

CDK4/Cyclin D1 = CDK4/Cyclin D1 (Homo sapiens, UniProt P11802); assay: CDK4/cyclin D1 kinase assay (GST-Rb phosphorylation); format: biochemical
Sequence of CDK4/Cyclin D1 (P11802 whole entry, species assumed): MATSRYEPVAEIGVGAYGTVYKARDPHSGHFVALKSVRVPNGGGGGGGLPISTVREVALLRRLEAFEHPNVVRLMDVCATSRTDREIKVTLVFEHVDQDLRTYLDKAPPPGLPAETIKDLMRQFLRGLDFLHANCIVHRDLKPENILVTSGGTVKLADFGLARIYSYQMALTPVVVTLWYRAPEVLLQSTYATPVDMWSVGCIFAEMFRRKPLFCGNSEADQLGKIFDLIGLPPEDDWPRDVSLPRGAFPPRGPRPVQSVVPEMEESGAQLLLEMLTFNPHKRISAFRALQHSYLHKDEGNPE
Sequence of CDK4/Cyclin D1 (P24385 whole entry partner, species assumed): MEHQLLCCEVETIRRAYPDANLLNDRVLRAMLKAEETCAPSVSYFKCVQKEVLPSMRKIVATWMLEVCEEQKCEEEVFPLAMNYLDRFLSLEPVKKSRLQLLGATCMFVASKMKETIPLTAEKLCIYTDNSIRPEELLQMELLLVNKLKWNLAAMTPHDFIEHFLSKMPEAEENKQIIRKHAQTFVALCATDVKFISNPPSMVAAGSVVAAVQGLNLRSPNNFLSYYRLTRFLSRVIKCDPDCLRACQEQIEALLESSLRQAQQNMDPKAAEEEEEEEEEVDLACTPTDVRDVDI

CDK7/cyclin H = CDK7/cyclin H (Homo sapiens, UniProt P50613); assay: CDK7 assay (CTD peptide substrate); format: biochemical
Sequence of CDK7/cyclin H (P50613 whole entry): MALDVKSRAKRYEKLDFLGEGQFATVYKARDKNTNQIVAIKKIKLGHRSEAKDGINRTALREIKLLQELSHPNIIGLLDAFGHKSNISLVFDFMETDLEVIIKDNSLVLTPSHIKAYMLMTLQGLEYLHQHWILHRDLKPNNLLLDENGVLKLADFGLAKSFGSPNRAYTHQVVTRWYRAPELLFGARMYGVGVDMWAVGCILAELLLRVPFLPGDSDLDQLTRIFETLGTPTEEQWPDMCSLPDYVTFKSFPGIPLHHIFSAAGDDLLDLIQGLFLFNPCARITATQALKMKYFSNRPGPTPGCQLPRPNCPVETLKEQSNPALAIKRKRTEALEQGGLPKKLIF
Sequence of CDK7/cyclin H (P51946 whole entry partner): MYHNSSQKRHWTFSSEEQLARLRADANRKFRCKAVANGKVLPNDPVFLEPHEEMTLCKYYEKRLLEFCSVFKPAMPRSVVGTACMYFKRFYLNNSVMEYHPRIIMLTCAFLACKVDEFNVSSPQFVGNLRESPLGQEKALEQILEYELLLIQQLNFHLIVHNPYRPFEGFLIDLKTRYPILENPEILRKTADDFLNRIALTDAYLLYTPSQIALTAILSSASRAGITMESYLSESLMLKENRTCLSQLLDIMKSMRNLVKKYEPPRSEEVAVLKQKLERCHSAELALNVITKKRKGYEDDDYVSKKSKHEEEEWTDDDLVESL
Protocol: (§1) CTD peptide substrate (biotinyl-Ahx-(Tyr-Ser-Pro-Thr-Ser-Pro-Ser)4-NH2; 1-2 mg/mL) and recombinant human CDK7/cyclin H, CDK9/cyclin T1, or CDK9/cyclin K (0.5-2 μg) were incubated for 45 min at 30° C. in the presence of varying amounts of test compound in 20 mM MOPS pH 7.2, 25 mM β-glycerophosphate, 5 mM EGTA, 1 mM DTT, 1 mM sodium vanadate, 15 mM MgCl2, and 100 μM ATP (containing a trace amount of ^32PγATP) in a total volume of 25 μL in a 96-well microtiter plate. The reaction was stopped by placing the plate on ice for 2 min. Avidin (50 μg) was added to each well, and the plate was incubated at room temp for 30 min. The samples were transferred to a 96-well P81 filter plate, and washed (4×200 μL per well) with 75 mM phosphoric acid. Microscint 40 scintillation liquid (50 μL) was added to each well, and the amount of ^32P incorporation for each sample was measured using a Packard Topcount microplate scintillation counter.

CDK1/Cyclin B = CDK1/Cyclin B (Homo sapiens, UniProt P06493); assay: CDK1/cyclin B kinase assay (GST-Rb phosphorylation);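 further: Enzyme: His-tagged CDK1/Cyclin B co-expressed in baculovirus-infected Sf9 insect cells, purified via metal-chelate chromatography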
Sequence of CDK1/Cyclin B (P06493 whole entry, species assumed): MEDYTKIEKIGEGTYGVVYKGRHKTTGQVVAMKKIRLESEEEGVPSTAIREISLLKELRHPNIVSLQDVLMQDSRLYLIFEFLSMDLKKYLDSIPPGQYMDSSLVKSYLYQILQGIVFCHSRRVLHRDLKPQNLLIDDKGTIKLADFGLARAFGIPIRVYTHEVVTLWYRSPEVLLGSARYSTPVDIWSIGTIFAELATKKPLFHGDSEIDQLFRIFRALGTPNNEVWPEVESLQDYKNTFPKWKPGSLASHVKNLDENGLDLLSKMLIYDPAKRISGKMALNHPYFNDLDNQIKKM
Sequence of CDK1/Cyclin B (P14635 whole entry partner, species assumed): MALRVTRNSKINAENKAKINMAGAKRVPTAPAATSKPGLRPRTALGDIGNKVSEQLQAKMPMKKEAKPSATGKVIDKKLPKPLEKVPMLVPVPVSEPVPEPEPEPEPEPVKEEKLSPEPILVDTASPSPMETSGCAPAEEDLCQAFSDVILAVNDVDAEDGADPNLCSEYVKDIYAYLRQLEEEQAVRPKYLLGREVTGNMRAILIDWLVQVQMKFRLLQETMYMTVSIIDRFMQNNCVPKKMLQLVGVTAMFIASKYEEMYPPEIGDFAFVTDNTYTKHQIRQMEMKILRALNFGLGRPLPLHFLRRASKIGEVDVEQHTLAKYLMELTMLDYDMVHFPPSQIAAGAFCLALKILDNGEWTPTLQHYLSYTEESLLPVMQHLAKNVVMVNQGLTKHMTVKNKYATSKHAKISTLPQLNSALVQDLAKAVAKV
Protocol: as §2

CDK2/cyclin A = CDK2/cyclin A (Homo sapiens, UniProt P24941); assay: CDK2/cyclin A kinase assay; format: biochemical;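 further: Read-out is incorporated radioactivity retained on P81 filter plates and quantified by scintillation counting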
Protocol: Reactions were stopped on ice, followed by filtration through p81 filterplates (Whatman Polyfiltronics, Kent, UK). After washing 3 times with 75 mM orthophosphoric acid, plates were dried, scintillant added and incorporated radioactivity measured in a scintillation counter (TopCount, Packard Instruments, Pangboume, Berks, UK).

CDK9/cyclin T1 = CDK9/cyclin T1 (Homo sapiens, UniProt P50750); assay: CDK9 assay (CTD peptide substrate); format: biochemical
Sequence of CDK9/cyclin T1 (P50750 whole entry): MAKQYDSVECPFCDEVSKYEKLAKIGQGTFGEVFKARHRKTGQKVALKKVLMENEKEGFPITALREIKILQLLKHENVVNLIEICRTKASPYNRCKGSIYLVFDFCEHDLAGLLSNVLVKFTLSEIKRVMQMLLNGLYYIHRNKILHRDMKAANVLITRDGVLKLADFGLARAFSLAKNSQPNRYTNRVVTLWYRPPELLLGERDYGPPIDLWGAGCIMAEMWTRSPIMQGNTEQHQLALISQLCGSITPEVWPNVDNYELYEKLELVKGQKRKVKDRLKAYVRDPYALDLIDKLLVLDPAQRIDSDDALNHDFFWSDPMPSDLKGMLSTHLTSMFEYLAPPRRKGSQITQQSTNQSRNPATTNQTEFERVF
Sequence of CDK9/cyclin T1 (O60563 whole entry partner): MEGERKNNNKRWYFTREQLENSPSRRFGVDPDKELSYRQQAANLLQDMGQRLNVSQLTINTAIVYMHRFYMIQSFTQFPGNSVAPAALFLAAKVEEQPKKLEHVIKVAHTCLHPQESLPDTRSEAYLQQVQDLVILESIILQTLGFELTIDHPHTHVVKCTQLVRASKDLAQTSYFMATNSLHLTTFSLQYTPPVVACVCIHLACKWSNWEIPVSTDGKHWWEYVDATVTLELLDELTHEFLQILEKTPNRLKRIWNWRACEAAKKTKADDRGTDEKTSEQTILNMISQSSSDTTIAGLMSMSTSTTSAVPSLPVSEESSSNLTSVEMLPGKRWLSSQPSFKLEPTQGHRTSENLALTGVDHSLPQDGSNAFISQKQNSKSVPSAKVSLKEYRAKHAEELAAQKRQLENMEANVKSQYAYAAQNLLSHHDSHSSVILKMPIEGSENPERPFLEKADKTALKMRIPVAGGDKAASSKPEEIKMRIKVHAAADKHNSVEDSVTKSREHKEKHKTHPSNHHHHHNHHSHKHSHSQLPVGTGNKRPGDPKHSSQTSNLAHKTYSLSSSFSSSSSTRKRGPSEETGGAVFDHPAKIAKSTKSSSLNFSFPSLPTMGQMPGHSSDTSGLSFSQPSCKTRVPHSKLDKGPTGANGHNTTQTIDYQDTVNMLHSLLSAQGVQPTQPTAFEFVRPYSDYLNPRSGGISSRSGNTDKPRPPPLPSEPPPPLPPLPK
Protocol: as §1

[1] = Compound cytotoxicity in PBMC assay plates (MTS cell viability); details: human, TC50 (concentration decreasing cell viability by 50%)
HIV-1 = assay: Anti-viral cell-based assays; details: result in words
HIV-1RoJo/PBMC = assay: Anti-HIV efficacy in fresh human PBMCs, strain RoJo; format: cell-based; details: HIV-1RoJo/PBMC
Protocol: Fresh PBMCs, seronegative for HIV and HBV, were isolated from screened donors (Interstate Blood Bank, Inc. Memphis, Tenn.). Cells were pelleted/washed 2-3 times by low speed centrifugation and re-suspension in PBS to remove contaminating platelets. […] Banded PBMCs were gently aspirated from the resulting interface and subsequently washed with PBS by low speed centrifugation. […] The cells were allowed to incubate at 37° C. […] IL-2 is included in the culture medium to maintain the cell division initiated by the PHA mitogenic stimulation. PBMCs were maintained in this with bi-weekly medium changes until used in the assay protocol. Cells were kept in culture for a maximum of two weeks before being deemed too old for use in assays and discarded. Monocytes were depleted from the culture as the result of adherence to the tissue culture flask.
Tritiated thymidine triphosphate (^3H-TTP, 80 Ci/mmol, NEN) was received in 1:1 dH2O:Ethanol at 1 mCi/mL. Poly rA:oligo dT template:primer (Pharmacia) was prepared as a stock solution, followed by aliquoting and storage at −20° C. The RT reaction buffer was prepared fresh on a daily basis. The final reaction mixture was prepared by combining ^3H-TTP, dH2O, poly rA:oligo dT stock and reaction buffer. This reaction mixture was placed in a round bottom microtiter plate and supernatant containing virus was added and mixed. The plate was incubated at 37° C. for 60 minutes. Following incubation, the reaction volume was spotted onto DE81 filter-mats (Wallac), in a sodium phosphate buffer or 2×SSC (Life Technologies). Next they were washed in distilled water, in 70% ethanol, and then dried. Incorporated radioactivity (counts per minute, CPM) was quantified using standard liquid scintillation techniques.

[2] = Table 3, read-out: Average IC50 CDK2 cyclin E1
[3] = Table 3, read-out: Average IC50 CDK4 cyclin D1
[4] = Table 3, read-out: Average IC50 CDK7 cyclin H
[5] = Table 3, read-out: Average IC50 CDK2 cyclin A2
[6] = Table 3, read-out: Average IC50 CDK9 cyclin T1
[7] = Table 4, read-out: Kinase Inhibition IC50 CDK2-cyclin E
[8] = Table 4, read-out: Kinase Inhibition IC50 CDK7-cyclin H
[9] = Table 4, read-out: Kinase Inhibition IC50 CDK2-cyclin A
[10] = Table 4, read-out: Kinase Inhibition IC50 CDK9-cyclin T1
[11] = Table 4, read-out: Kinase Inhibition IC50 CDK4-cyclin D1

SMILES	IC50 (CDK2/Cyclin E; [2])	IC50 (CDK4/Cyclin D1; [3])	IC50 (CDK7/cyclin H; [4])	IC50 (CDK1/Cyclin B)	IC50 (CDK2/cyclin A; [5])	IC50 (CDK9/cyclin T1; [6])	IC50 (CDK2/cyclin A; [9])	further results
Cc1nc(C)c(-c2ccnc(Nc3ccccc3)n2)s1 [Compound 150, [4-(2,4-Dimethyl-thiazol-5-yl)-pyrimidin-2-yl]-phenyl-amine]	160 nM	4900 nM	11000 nM	1500 nM	410 nM			
Cc1nc(N)sc1-c1ccnc(Nc2cccc(N)c2)n1 [Compound 149, N-[4-(2-Amino-4-methyl-thiazol-5-yl)-pyrimidin-2-yl]-benzene-1,3-diamine]	250 nM	500 nM	990 nM	710 nM	520 nM	59 nM		
Cc1nc(C)c(-c2ccnc(Nc3cccc(N)c3)n2)s1 [Compound 34, N-[4-(2,4-Dimethyl-thiazol-5-yl)-pyrimidin-2-yl]-benzene-1,3-diamine]	530 nM	1700 nM	5200 nM	1500 nM	530 nM	410 nM		
Cc1nc(C)c(-c2ccnc(Nc3ccc(N(C)C)cc3)n2)s1 [Compound 103, N,N-Dimethyl-N′-[4-(2,4-dimethyl-thiazol-5-yl)-pyrimidin-2-yl]-benzene-1,4-diamine]			11000 nM	7300 nM		1800 nM		CC50 at 7 days ([1]; HIV-1RoJo/PBMC): > 100000 nM; CC50 at 7 days ([1]; HIV-1WeJo/PBMC): 800 nM; anti-viral effectiveness as demonstrated by cell-based assays (HIV-1): particularly effective anti-viral agents
COc1ccc(Nc2nccc(-c3sc(C)nc3C)n2)cc1N(C)C [Compound 130, N^1-[4-(2,4-Dimethyl-thiazol-5-yl)-pyrimidin-2-yl]-4-methoxy-N^3,N^3-dimethyl-benzene-1,3-diamine]	1100 nM	4100 nM	4900 nM	470 nM	670 nM			
CCNc1nc(C)c(-c2ccnc(Nc3cccc([N+](=O)[O-])c3)n2)s1 [Compound 133, [4-(2-Ethylamino-4-methyl-thiazol-5-yl)-pyrimidin-2-yl]-(3-nitro-phenyl)-amine]	88 nM	4700 nM	390 nM	> 100000 nM	4200 nM	210 nM		
Cc1nc(C)c(-c2ccnc(Nc3cccc(C(F)(F)F)c3)n2)s1 [Compound 13, [4-(2,4-Dimethyl-thiazol-5-yl)-pyrimidin-2-yl]-(3-trifluoromethyl-phenyl)-amine]	22000 nM	> 100000 nM	> 100000 nM	> 100000 nM	> 100000 nM	85000 nM		
Cc1c(-c2ccnc(Nc3ccc(F)c([N+](=O)[O-])c3)n2)sc(=O)n1C [Compound 159, 5-[2-(4-Fluoro-3-nitro-phenylamino)-pyrimidin-4-yl]-3,4-dimethyl-3H-thiazol-2-one]				820 nM			260 nM	IC50 (CDK2/Cyclin E; [7]): 78 nM; IC50 (CDK7/cyclin H; [8]): 1100 nM
Cc1ccc(Nc2nccc(-c3sc(=O)n(C)c3C)n2)cc1[N+](=O)[O-] [Compound 163, 3,4-Dimethyl-5-[2-(4-methyl-3-nitro-phenylamino)-pyrimidin-4-yl]-3H-thiazol-2-one]				96 nM			84 nM	IC50 (CDK9/cyclin T1; [10]): 14 nM; IC50 (CDK2/Cyclin E; [7]): 36000 nM; IC50 (CDK4/Cyclin D1; [11]): 110 nM; IC50 (CDK7/cyclin H; [8]): 1.2 nM
Cc1c(-c2ccnc(Nc3cccc(O)c3)n2)sc(=O)n1C [Compound 158, 5-[2-(3-Hydroxy-phenylamino)-pyrimidin-4-yl]-3,4-dimethyl-3H-thiazol-2-one]				370 nM			86 nM	IC50 (CDK2/Cyclin E; [7]): 93 nM; IC50 (CDK4/Cyclin D1; [11]): 1000 nM; IC50 (CDK7/cyclin H; [8]): 1300 nM
CNc1nc(C)c(-c2ccnc(Nc3cccc(C(F)(F)F)c3)n2)s1 [Compound 75, [4-(4-Methyl-2-methylamino-thiazol-5-yl)-pyrimidin-2-yl]-(3-trifluoromethyl-phenyl)-amine]	770 nM	> 100000 nM	19000 nM	> 100000 nM	> 100000 nM	8300 nM		
Cc1nc(N)sc1-c1ccnc(Nc2ccc(CCO)cc2)n1 [Compound 118, 2-{4-[4-(2-Amino-4-methyl-thiazol-5-yl)-pyrimidin-2-ylamino]-phenyl}-ethanol]	390 nM	820 nM	2800 nM	1800 nM	420 nM	800 nM		
Cc1nc(N(C)C)sc1-c1ccnc(Nc2cccc([N+](=O)[O-])c2)n1 [Compound 140, [4-(2-Dimethylamino-4-methyl-thiazol-5-yl)-pyrimidin-2-yl]-(3-nitro-phenyl)-amine]	480 nM	105000 nM	> 100000 nM	49000 nM	1800 nM	7100 nM		
Cc1c(-c2ccnc(Nc3ccc(Cl)cc3)n2)sc(=O)n1C [Compound 156, 5-[2-(4-Chloro-phenylamino)-pyrimidin-4-yl]-3,4-dimethyl-3H-thiazol-2-one]				1400 nM			270 nM	IC50 (CDK7/cyclin H; [8]): 8700 nM
COc1ccc(Nc2nccc(-c3sc(C)nc3C)n2)cc1O [Compound 126, 5-[4-(2,4-Dimethyl-thiazol-5-yl)-pyrimidin-2-ylamino]-2-methoxy-phenol]	140 nM	1700 nM		1600 nM	310 nM	1300 nM		
CNc1nc(C)c(-c2ccnc(Nc3ccc(F)cc3)n2)s1 [Compound 47, (4-Fluoro-phenyl)-[4-(4-methyl-2-methylamino-thiazol-5-yl)-pyrimidin-2-yl]-amine]	37 nM					82 nM		CC50 at 7 days ([1]; HIV-1RoJo/PBMC): 6800 nM; anti-viral effectiveness as demonstrated by cell-based assays (HIV-1): particularly effective anti-viral agents; TI (therapeutic index: TC50/IC50) (HIV-1RoJo/PBMC): 34; IC50 (HIV-1RoJo/PBMC; Human immunodeficiency virus 1, read-out: IC50 (concentration inhibiting virus replication by 50%)): 200 nM; IC90 (HIV-1RoJo/PBMC; Human immunodeficiency virus 1, read-out: IC90 (concentration inhibiting virus replication by 90%)): 1200 nM
Cc1nc(C)c(-c2ccnc(Nc3ccc(S(=O)(=O)O)cc3)n2)s1 [Compound 148, 4-[4-(2,4-Dimethyl-thiazol-5-yl)-pyrimidin-2-ylamino]-benzenesulfonic acid]	28 nM	3800 nM	11000 nM	48 nM	1 nM			
Cc1cc(Nc2nccc(-c3sc(=O)n(C)c3C)n2)ccc1Cl [Compound 160, 5-[2-(4-Chloro-3-methyl-phenylamino)-pyrimidin-4-yl]-3,4-dimethyl-3H-thiazol-2-one]				1800 nM			1200 nM	IC50 (CDK9/cyclin T1; [10]): 150 nM; IC50 (CDK2/Cyclin E; [7]): 1700 nM; IC50 (CDK4/Cyclin D1; [11]): 18000 nM
Cc1c(-c2ccnc(Nc3cccc([N+](=O)[O-])c3)n2)sc(=O)n1C [Compound 153, 3,4-Dimethyl-5-[2-(3-nitro-phenylamino)-pyrimidin-4-yl]-3H-thiazol-2-one]				3000 nM			16 nM	IC50 (CDK9/cyclin T1; [10]): 2.2 nM; IC50 (CDK2/Cyclin E; [7]): 610 nM; IC50 (CDK4/Cyclin D1; [11]): 560 nM; IC50 (CDK7/cyclin H; [8]): 120 nM
